{"source": "patent US7297489B2", "about": "“Mutations in and genomic structure of HERG—a long QT syndrome gene” (University of Utah Research Foundation, priority 1998, dated 2007)", "key": {"[1]": {"target": "T1, HERG (Homo sapiens, UniProt Q12809)", "T1 sequence (Q12809 whole entry)": "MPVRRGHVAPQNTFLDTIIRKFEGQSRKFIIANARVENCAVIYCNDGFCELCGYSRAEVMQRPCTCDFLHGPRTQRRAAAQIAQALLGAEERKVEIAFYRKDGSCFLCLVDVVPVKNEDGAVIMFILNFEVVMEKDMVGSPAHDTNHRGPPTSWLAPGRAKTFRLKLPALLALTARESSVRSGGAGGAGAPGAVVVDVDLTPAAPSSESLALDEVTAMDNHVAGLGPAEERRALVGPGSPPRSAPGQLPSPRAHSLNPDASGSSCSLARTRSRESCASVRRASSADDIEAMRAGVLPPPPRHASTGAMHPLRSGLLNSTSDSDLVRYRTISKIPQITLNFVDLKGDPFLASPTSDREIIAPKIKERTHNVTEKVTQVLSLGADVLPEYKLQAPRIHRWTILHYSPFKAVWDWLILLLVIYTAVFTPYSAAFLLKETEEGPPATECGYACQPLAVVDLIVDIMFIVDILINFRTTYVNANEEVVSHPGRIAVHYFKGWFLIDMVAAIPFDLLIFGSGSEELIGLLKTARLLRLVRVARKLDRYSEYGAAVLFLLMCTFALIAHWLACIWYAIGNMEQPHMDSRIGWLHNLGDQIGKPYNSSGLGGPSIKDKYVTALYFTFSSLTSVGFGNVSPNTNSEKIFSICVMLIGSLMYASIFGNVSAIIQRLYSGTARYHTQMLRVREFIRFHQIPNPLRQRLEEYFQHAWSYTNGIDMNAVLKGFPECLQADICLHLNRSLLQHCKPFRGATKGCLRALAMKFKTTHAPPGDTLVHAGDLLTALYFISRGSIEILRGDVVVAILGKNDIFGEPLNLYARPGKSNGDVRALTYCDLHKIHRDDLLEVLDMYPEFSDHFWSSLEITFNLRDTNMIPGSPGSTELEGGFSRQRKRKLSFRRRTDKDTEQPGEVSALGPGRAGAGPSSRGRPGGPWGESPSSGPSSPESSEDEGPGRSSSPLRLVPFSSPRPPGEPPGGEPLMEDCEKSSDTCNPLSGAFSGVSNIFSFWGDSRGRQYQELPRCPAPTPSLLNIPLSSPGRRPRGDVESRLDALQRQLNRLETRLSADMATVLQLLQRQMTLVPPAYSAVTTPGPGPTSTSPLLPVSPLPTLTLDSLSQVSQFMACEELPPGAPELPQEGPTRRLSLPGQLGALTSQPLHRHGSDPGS", "test": "HERG current in Xenopus oocytes injected with HERG cRNA, two-microelectrode voltage clamp", "settings": "for effect on current magnitude or voltage-dependence of channel activation: 1 mM within 30 min of application", "procedure": "(§1) The characteristics of the expressed channel were studied in oocytes 2-6 days after cRNA injection using standard two-microelectrode voltage clamp techniques. HERG current was activated in response to test potentials >−50 mV. […] Deactivation of current (tail current) was assessed after return of the membrane to the holding potential of −70 mV. […] The voltage-dependence of channel activation was assessed by plotting the relative amplitude of tail currents as a function of test potential (FIG. 1D).\n(§2) Xenopus frogs were anesthetized by immersion in 0.2% tricaine for 15-30 min. Ovarian lobes were digested with 2 mg/ml Type 1A collagenase (Sigma) in Ca^2+-free ND96 solution for 1.5 hours to remove follicle cells. […] Barth's solution contained (in mM): 88 NaCl, 1 KCl, 0.4 CaCl2, 0.33 Ca(NO3)2, 1 MgSO4, 2.4 NaHCO3, 10 HEPES; pH 7.4.\n(§3) Unless indicated, oocytes were bathed in ND96 solution. This solution contained (in mM): 96 NaCl, 2 KCl, 1 MgCl2, 1.8 CaCl2, 5 HEPES; pH 7.6. In some experiments, KCl was varied by equimolar substitution with NaCl. Currents were recorded at room temperature (21-23° C.) using standard two-microelectrode voltage clamp techniques. Glass microelectrodes were filled with 3 M KCl and their tips broken to obtain tip resistances of 1-3 MΩ for the voltage-recording electrode and 0.6-1 MΩ for the current-passing electrode. Oocytes were voltage-clamped with a Dagan TEV-200 amplifier. Voltage commands were generated using pClamp software (ver. 6, Axon Instruments), a 486DX2 personal computer and a TL-1 D/A interface (Axon Instruments). Current signals were digitally sampled at a rate equal to 2-4 times the low-pass cut-off frequency (−3 db) of a 4-pole Bessel filter. Unless indicated, currents were corrected for leak and capacitance using standard, on-line P/3 leak subtraction. The oocyte membrane potential was held at −70 mV between test pulses, applied at a rate of 1-3 pulses/min. Data analyses, including exponential fitting of current traces, were performed using pCLAMP. […] Data are expressed as the mean±SEM (n=number of oocytes)."}, "[2]": {"test_system": "IKr of cardiac myocytes", "settings": "cited from earlier work"}, "[3]": {"target": "T1, HERG", "procedure": "as §1, §2, §3"}, "[4]": {"target": "T2, IKr (mouse AT-1 cells) (Mus musculus, UniProt O35219)", "T2 sequence (O35219 1-1162)": "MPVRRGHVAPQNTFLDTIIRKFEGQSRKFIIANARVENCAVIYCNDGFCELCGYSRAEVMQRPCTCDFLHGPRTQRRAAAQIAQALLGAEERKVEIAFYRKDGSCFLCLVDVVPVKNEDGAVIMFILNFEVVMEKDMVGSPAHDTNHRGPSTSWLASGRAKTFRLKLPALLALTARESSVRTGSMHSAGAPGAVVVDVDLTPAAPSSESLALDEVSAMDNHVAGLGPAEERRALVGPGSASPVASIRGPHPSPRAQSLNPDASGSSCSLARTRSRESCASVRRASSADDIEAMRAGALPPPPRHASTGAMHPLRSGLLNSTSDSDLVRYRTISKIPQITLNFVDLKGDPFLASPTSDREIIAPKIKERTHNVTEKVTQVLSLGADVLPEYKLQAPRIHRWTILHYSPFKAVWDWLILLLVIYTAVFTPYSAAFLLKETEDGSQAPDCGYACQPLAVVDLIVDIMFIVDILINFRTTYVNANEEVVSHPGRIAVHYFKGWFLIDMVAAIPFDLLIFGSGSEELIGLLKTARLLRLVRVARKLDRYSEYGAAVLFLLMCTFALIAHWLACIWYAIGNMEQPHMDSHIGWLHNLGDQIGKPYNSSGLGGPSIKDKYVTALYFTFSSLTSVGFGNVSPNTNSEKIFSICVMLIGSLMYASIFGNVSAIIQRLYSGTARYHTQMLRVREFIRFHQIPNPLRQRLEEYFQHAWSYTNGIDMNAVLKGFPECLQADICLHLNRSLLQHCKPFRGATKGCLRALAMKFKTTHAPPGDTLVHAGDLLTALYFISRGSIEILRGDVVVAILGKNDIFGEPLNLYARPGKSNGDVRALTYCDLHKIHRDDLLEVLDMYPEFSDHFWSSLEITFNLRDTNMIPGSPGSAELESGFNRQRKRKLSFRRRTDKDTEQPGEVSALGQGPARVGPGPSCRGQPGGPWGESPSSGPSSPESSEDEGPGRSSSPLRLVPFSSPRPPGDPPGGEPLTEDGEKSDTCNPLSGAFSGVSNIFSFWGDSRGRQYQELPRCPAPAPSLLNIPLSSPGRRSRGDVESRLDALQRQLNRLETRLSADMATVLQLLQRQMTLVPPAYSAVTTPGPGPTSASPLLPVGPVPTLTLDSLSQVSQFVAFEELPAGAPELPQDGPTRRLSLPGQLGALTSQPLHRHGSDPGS", "settings": "cited from earlier work"}, "[5]": {"target": "T3, IKr (guinea pig heart) (Cavia porcellus, UniProt O08703)", "T3 construct": "host or cells: guinea pig cardiac myocytes (endogenous current)", "T3 sequence (O08703 1-1294)": "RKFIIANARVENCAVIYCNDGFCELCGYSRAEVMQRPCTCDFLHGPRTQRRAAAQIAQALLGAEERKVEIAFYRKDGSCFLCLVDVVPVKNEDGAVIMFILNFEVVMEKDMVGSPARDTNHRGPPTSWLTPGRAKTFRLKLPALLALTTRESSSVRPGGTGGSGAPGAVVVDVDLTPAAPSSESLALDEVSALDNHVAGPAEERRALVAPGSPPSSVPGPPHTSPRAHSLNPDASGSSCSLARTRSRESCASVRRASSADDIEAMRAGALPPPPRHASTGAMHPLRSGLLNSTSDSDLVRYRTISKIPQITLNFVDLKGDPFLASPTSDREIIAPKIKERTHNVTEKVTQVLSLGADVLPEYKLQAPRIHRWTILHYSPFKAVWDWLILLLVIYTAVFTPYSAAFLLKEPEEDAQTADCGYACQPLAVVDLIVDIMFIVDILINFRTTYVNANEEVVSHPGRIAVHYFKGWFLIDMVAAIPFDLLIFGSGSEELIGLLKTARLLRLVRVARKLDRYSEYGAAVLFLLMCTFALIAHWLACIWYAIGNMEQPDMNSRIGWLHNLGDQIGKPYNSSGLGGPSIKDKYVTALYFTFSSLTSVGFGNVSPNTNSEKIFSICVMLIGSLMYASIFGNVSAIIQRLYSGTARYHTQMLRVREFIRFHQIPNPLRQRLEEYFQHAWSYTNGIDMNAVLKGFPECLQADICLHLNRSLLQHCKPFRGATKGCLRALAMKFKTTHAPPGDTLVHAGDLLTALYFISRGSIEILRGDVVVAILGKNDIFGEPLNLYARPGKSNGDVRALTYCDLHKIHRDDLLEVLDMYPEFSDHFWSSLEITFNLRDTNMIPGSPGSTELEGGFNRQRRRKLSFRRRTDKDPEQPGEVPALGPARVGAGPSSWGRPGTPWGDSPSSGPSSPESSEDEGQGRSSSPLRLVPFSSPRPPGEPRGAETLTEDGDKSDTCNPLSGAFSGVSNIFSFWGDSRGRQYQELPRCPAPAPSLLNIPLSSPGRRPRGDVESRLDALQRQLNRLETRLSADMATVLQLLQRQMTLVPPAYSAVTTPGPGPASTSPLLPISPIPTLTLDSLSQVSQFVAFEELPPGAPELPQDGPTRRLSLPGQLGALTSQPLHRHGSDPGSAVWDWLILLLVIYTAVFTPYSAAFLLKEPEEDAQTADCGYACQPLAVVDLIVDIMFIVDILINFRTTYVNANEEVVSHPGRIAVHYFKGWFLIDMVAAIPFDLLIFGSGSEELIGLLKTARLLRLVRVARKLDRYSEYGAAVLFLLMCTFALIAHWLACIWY", "settings": "read-out: IC50 (blockers, methanesulfonanilides); cited from earlier work"}, "[6]": {"target": "T4, rcKATP-1 (Rattus norvegicus, UniProt P48548)", "T4 sequence (P48548 1-419)": "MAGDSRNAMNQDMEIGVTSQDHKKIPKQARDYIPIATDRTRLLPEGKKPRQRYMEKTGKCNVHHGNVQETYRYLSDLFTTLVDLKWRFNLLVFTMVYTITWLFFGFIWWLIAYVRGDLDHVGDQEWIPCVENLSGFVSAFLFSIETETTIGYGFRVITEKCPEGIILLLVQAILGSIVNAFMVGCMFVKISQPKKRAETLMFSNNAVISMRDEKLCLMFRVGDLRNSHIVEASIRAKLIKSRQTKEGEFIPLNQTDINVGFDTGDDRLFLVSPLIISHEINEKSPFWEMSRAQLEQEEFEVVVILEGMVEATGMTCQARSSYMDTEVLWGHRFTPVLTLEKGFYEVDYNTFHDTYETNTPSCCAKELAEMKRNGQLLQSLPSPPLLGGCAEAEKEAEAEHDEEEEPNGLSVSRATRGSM", "settings": "expressed in HEK293 cells; cited from earlier work"}}, "note": "Read-outs that look alike come from different tables or passages of the source."}
{"smiles": "Nc1ncnc2c1nc(Br)n2[C@@H]1O[C@@H]2COP(=O)(O)O[C@H]2[C@H]1O", "note": "[8-Br-cAMP]", "values": [{"measurement": "activation of HERG", "setting": "[1]", "result": "not activated"}, {"measurement": "effect on current magnitude or voltage-dependence of channel activation", "setting": "[1]", "result": "Neither compound had a significant effect"}]}
{"smiles": "Nc1nc2c(nc(Br)n2[C@@H]2O[C@@H]3COP(=O)(O)O[C@H]3[C@H]2O)c(=O)[nH]1", "note": "[8-Br-cGMP]", "values": [{"measurement": "effect on current magnitude or voltage-dependence of channel activation", "setting": "[1]", "result": "Neither compound had a significant effect"}]}
{"smiles": "[Co+2]", "note": "[Co^2+, cobalt]", "values": [{"measurement": "block of HERG current", "setting": "[1]; 2 mM Co^2+, n=2", "result": 52, "unit": "%"}, {"measurement": "block of IKr", "setting": "[2]; 2 mM cobalt", "result": "blocked"}]}
{"smiles": "[K+]", "note": "[K^+]", "values": [{"measurement": "increase of HERG current", "setting": "[1]; [K^+]e 5 mM versus 2 mM", "result": 40, "unit": "%"}]}
{"smiles": "[La+3]", "note": "[La^3+, lanthanum]", "values": [{"measurement": "Blockers La^3+, Co^2+", "setting": "[3]", "result": "+"}, {"measurement": "half-point of activation (isochronal activation curve)", "setting": "[3]", "result": "+23 mV"}, {"measurement": "Blockers La^3+, Co^2+", "setting": "[4]", "result": "+"}, {"measurement": "block of IKr", "setting": "[2]; 10-100 μM lanthanum", "result": "blocked"}]}
{"smiles": "CS(=O)(=O)Nc1ccc2c(c1)[C@H](O)CC1(CCN([C@@H]3CCc4cc(C#N)ccc4C3)CC1)O2", "note": "[MK-499]", "values": [{"measurement": "IC50", "setting": "[5]", "result": 44, "unit": "nM"}]}
{"smiles": "COc1ccc(Cl)cc1C(=O)NCCc1ccc(S(=O)(=O)NC(=O)NC2CCCCC2)cc1", "note": "[glibenclamide]", "values": [{"measurement": "block of the channel", "setting": "[6]", "result": "not blocked"}]}
{"smiles": "CC(C)NCC(O)c1ccc(O)c(O)c1", "note": "(stereo not shown) [isoproterenol]", "values": [{"measurement": "increase of IKr", "setting": "[2]; cardiac myocytes", "result": "does not increase"}]}
